# Measurements reported in patent publication US9381349B2, “Apparatus for treating cerebral neurovascular disorders including headaches by neural stimulation” (priority 1997, dated 2016).
# Entries after “also recorded” stand apart in the source; their conditions may differ. Read-outs that look alike come from different tables or passages of the source.
# Columns and labels:
# acute migraine episodes = format: in vivo, human; parameters: key to Pain Rating After Administration: 0 = no pain, 10 = worst pain imaginable; conditions: for Mean Time Until Maximal Effect: no unit in table (minutes); for Pain Rating After Administration / Pain Relief: mean; for Pain Rating After Administration / Pain Relief / Rate of Pain Relief (migraine pain reduction per minute per gram of drug): 10-point pain scale
# From the text: The purpose of the experiments described in this Example was to determine the efficacy of dorsonasal administration of ropivacaine for inhibition of acute migraine episodes. Ropivacaine was dorsonasally administered to individual patients experiencing head pain, other symptoms, or both, believed to be associated with an acute migraine episode. Patients assessed head pain prior to and after ropivacaine administration.
# Ropivacaine-HCl (NAROPINT™, Astra USA, Westborough, Mass.) was used as the commercially-available 0.75% (w/v) solution, and was obtained in 30 milliliter, sterile injectable vials.
# Three methods were used to achieve dorsonasal delivery of ropivacaine to individual patients. Ropivacaine was administered to a first group of patients by an intranasal drip method. Ropivacaine was administered to a second group using cotton swabs, the absorbent portions of which were saturated with the ropivacaine solution. Ropivacaine was administered to patients in a third group by spraying the ropivacaine solution into each nostril, using either a squeeze-type spray bottle or a metered-dose spray bottle.
# The intranasal drip method used to administer ropivacaine to the first group of patients was a based on the method described by Barre (1982, Headache 22:69-73), except that the ropivacaine solution was used in place of the solution used by Bane. Approximately 0.75 milliliter to approximately 1.0 milliliter of the ropivacaine solution was administered by way of each of the nostrils of each patient.
# The cotton swab method used to administer ropivacaine to the second group of patients comprised gently inserting cotton swabs, sequentially and bilaterally, into the nostrils of patients and urging the swabs dorsally until their absorbent portions contacted portions of nasal epithelium located dorsal to the middle conchae. Each swab was left in place for approximately one minute, and was then withdrawn. Approximately 0.5 milliliter of the ropivacaine solution was delivered to each nostril using this method.
# Patients in a third group were administered ropivacaine by spraying less than about 0.5 milliliter of the ropivacaine solution into each of the patient's nostrils using either a sterile squeeze bottle or a sterile metered-dose spray bottle of known design. The design and operation of each of these spray bottles are well known in the art.
# Prior to administration of ropivacaine, each patient was placed in a supine position with the patient's head hyperextended approximately 45 degrees and rotated approximately 30 degrees to the right side. In this position, an imaginary line extending from the region of the nasal epithelium overlying the SPG of the patient through the patient's left nostril was approximately vertical. Ropivacaine was then administered to the left nostril of the patient as described for each of the three groups of patients. Ropivacaine was administered to each patient's right nostril after rotating the patient's head approximately 30 degrees to the left. Ropivacaine was administered to both nostrils of each patient to prevent cases of unilateral migraine from developing into contralateral migraine.
# Prior to ropivacaine administration, each patient rated perceived headache pain according to a standard pain scale of the type used in the art. Patients were asked to rank the severity of pain which they were experiencing on a scale from 0 (no pain) to 10 (worst pain imaginable). This ten-point pain rating scale is analogous to, but has more gradations than, the four-point rating system used by the International Headache Society (IHS; Headache Classification Committee of the International Headache Society, 1988, Cephalalgia 8(Suppl. 7):19-28). Ropivacaine was administered to one nostril of each patient, and then to the other. The time required to administer ropivacaine to both nostrils of each patient was approximately three minutes. […]
# tinnitus = assay: Inhibition of tinnitus by dorsonasal administration of ropivacaine (Example 4); format: in vivo, human
# From the text: Ropivacaine was dorsonasally administered to each of three patients using the nasal spray method or the nasal drops method described herein.
# [1] = cited from earlier work
# [2] = ropivacaine 0.75% (w/v), 2 Metered Sprays per nostril, individual patients, pain scale 0-10
# [3] = ropivacaine 0.75% (w/v), 2 Sprays per nostril (squeeze bottle), individual patients, pain scale 0-10
# [4] = ropivacaine 0.75% (w/v), 2 cc Drops (nasal drip), individual patients, pain scale 0-10
# [5] = ropivacaine 0.75% (w/v), Sat'd Cotton Swab, individual patients, pain scale 0-10
# [6] = ropivacaine 0.75% (w/v), Sat'd Cotton Swab, individual patients, pain scale 0-10, listed as R
# [7] = ropivacaine vs literature rizatriptan data (Kramer et al.)
# [8] = ropivacaine, Cotton Swab, 24 patients
# [9] = ropivacaine, Nasal Drops, 3 patients
# [10] = ropivacaine, Nasal Spray, 10 patients
# [11] = ropivacaine, nasal drops, three patients
# [12] = patient 4-3, 1 milliliter 0.75% (w/v) per nostril, nasal drop
compound,measurement,setting,value
"CCCN1CCCC[C@H]1C(=O)Nc1c(C)cccc1C [Ropivacaine, ropivacaine]",Adverse effects of administration,"acute migraine episodes; human, in vivo",one patient experienced an allergic response to ropivacaine administration
same,Apparent allergic reaction,"acute migraine episodes; human, in vivo",allergic reaction between 5
same,Oropharyngeal numbness,"acute migraine episodes; human, in vivo",6
same,Time to half maximal inhibition of CNvD or symptom,acute migraine episodes; intranasal or dorsonasal administration,within about three minutes
same,Pain 10 min post-treatment,acute migraine episodes; [2],Pain 10 min post-treatment: 0
same,Pain 15 min post-treatment,acute migraine episodes; [2],Pain 15 min post-treatment: 5
same,Pain 20 min post-treatment,acute migraine episodes; [2],Pain 20 min post-treatment: 3
same,Pain 45 min post-treatment,acute migraine episodes; [2],Pain 45 min post-treatment: 0
same,Pain 60 min post-treatment,acute migraine episodes; [2],Pain 60 min post-treatment: 2
same,Pain 90 min post-treatment,acute migraine episodes; [2],Pain 90 min post-treatment: 0
same,Pain 2 min post-treatment,acute migraine episodes; [3],Pain 2 min post-treatment: 0
same,Pain 10 min post-treatment,acute migraine episodes; [3],Pain 10 min post-treatment: 0
same,Pain 15 min post-treatment,acute migraine episodes; [3],Pain 15 min post-treatment: 2
same,Pain 20 min post-treatment,acute migraine episodes; [3],0
same,Pain 30 min post-treatment,acute migraine episodes; [3],0
same,Pain 3 min post-treatment,acute migraine episodes; [4],Pain 3 min post-treatment: 0
same,Pain 60 min post-treatment,acute migraine episodes; [4],Pain 60 min post-treatment: 0
same,Pain 15 min post-treatment,"acute migraine episodes; ropivacaine 0.75% (w/v), 2 cc Drops (nasal drip), individual patients, pain scale 0-10, listed as R",Pain 15 min post-treatment: 0; also recorded: Pain 15 min post-treatment: 5
same,Persistence of residual pain,"acute migraine episodes; ropivacaine 0.75% (w/v), Sat'd Cotton Swab, P#40",Level 5 pain endured 8 hours
same,Pain 1 min post-treatment,acute migraine episodes; [5],Pain 1 min post-treatment: 0
same,Pain 8 min post-treatment,acute migraine episodes; [5],Pain 8 min post-treatment: 0
same,Pain 15 min post-treatment,acute migraine episodes; [5],Pain 15 min post-treatment: 0
same,Pain 30 min post-treatment,acute migraine episodes; [5],Pain 30 min post-treatment: 5
same,Pain 18 hrs post-treatment,acute migraine episodes; [5],Pain 18 hrs post-treatment: 8
same,Pain 24 hours post-treatment,acute migraine episodes; [5],Pain 24 hours post-treatment: 1
same,Pain 2 min post-treatment,acute migraine episodes; [6],Pain 2 min post-treatment: 1; also recorded: Pain 2 min post-treatment: 0
same,Pain 3 min post-treatment,acute migraine episodes; [6],Pain 3 min post-treatment: 0; also recorded: Pain 3 min post-treatment: 1
same,Pain 5 min post-treatment,acute migraine episodes; [6],Pain 5 min post-treatment: 0; also recorded: Pain 5 min post-treatment: 1; also recorded: Pain 5 min post-treatment: 2
same,Pain 10 min post-treatment,acute migraine episodes; [6],Pain 10 min post-treatment: 1; also recorded: Pain 10 min post-treatment: 0
same,Pain 20 min post-treatment,acute migraine episodes; [6],Pain 20 min post-treatment: 3; also recorded: Pain 20 min post-treatment: 0
same,Patients with significant pain reduction,"acute migraine episodes; ropivacaine 0.75% (w/v), cotton swab",100%
same,Effectiveness to reduce pain associated with migraine,"acute migraine episodes; ropivacaine 0.75% (w/v), dorsonasal spray",100%
same,Pain following spray,"acute migraine episodes; ropivacaine 0.75% (w/v), retreated with 2 Sprays 18 hrs after swab treatment (P#14), pain scale 0-10",0
same,Response rate compared with lidocaine (FIG. 3),acute migraine episodes; ropivacaine vs literature lidocaine data (Maizels et al.),nearly two-fold greater response rate
same,Rebound rate compared with rizatriptan,acute migraine episodes; [7],lower than the rebound rate following rizatriptan administration
same,Response rate compared with rizatriptan,acute migraine episodes; [7],greater than the response rate obtained by administration of rizatriptan
same,Onset of relief and response rate compared with sumatriptan (FIG. 3),acute migraine episodes; ropivacaine vs literature subcutaneous sumatriptan data,earlier onset of relief and a higher response rate
same,Mean Reduction in Pain Rating,acute migraine episodes; [8],8.64 IHS points
same,Mean Time Until Maximal Effect,acute migraine episodes; [8],7.41
same,Pain Rating After Administration,"acute migraine episodes; ropivacaine, Cotton Swab",0.33
same,Pain Relief,"acute migraine episodes; ropivacaine, Cotton Swab",8.73
same,Rebound Rate,"acute migraine episodes; ropivacaine, Dorsonasal Spray",10%
same,Relative Efficacy (Rate of Pain Relief divided by that of intranasally spray-administered lidocaine),"acute migraine episodes; ropivacaine, Dorsonasal Spray",2.45
same,Rate of Pain Relief (migraine pain reduction per minute per gram of drug),"acute migraine episodes; ropivacaine, Dorsonasal Spray",24.5
same,Rebound Rate,"acute migraine episodes; ropivacaine, Dorsonasal Swab",4%
same,Relative Efficacy (Rate of Pain Relief divided by that of intranasally spray-administered lidocaine),"acute migraine episodes; ropivacaine, Dorsonasal Swab",15.5
same,Rate of Pain Relief (migraine pain reduction per minute per gram of drug),"acute migraine episodes; ropivacaine, Dorsonasal Swab",155
same,Rate of Pain Relief,"acute migraine episodes; ropivacaine, Nasal Drops",1.25 IHS points per minute
same,Mean Reduction in Pain Rating,acute migraine episodes; [9],9.00 IHS points
same,Mean Time Until Maximal Effect,acute migraine episodes; [9],26.0
same,Pain Rating After Administration,"acute migraine episodes; ropivacaine, Nasal Drops",0.00
same,Pain Relief,"acute migraine episodes; ropivacaine, Nasal Drops",9.00
same,Rate of Pain Relief,"acute migraine episodes; ropivacaine, Nasal Spray",0.287 IHS points per minute
same,Mean Reduction in Pain Rating,acute migraine episodes; [10],6.22 IHS points
same,Mean Time Until Maximal Effect,acute migraine episodes; [10],33.9
same,Pain Rating After Administration,"acute migraine episodes; ropivacaine, Nasal Spray",1.00
same,Pain Relief,"acute migraine episodes; ropivacaine, Nasal Spray",6.22
same,Patients with complete relief,"acute migraine episodes; ropivacaine, all routes",72%
same,Patients with migraine inhibited / significant (greater than 50%) reduction of migraine severity,"acute migraine episodes; ropivacaine, all routes, thirty-seven migraine patients",92%
same,Average reduction in perceived pain,"acute migraine episodes; ropivacaine, all routes, within one hour, usually within 15 minutes or less",90%
same,"Rebound of migraine, patients","acute migraine episodes; ropivacaine, all routes, within twenty-four hours of treatment",5.4%
same,Mean time between treatment and perception of the peak effect,"acute migraine episodes; ropivacaine, cotton swab",7.41 ± 1.47 min
same,Patients achieving a pain severity rating of zero,"acute migraine episodes; ropivacaine, cotton swab",72%
same,Patients achieving a pain severity rating of zero or one,"acute migraine episodes; ropivacaine, cotton swab",95%
same,Patients with rebound,"acute migraine episodes; ropivacaine, cotton swab",4%
same,Rate of Pain Relief,"acute migraine episodes; ropivacaine, cotton swab",2.32 IHS points per minute
same,Mean peak headache severity rating reduction,"acute migraine episodes; ropivacaine, cotton swab, twenty-four patients",8.73±0.249 points
same,Mean post-administration pain severity rating at the time of peak effect,"acute migraine episodes; ropivacaine, cotton swab, twenty-four patients, mean±standard error, out of 10 points",0.33±0.14 points
same,Potency relative to intranasally spray-administered lidocaine (pain relief per unit weight),"acute migraine episodes; ropivacaine, dorsonasally spray-administered",2.4 times
same,Potency relative to intranasally spray-administered lidocaine (pain relief per unit weight),"acute migraine episodes; ropivacaine, dorsonasally swab-administered",more than 15 times
same,Mean time between treatment and perception of the peak effect,acute migraine episodes; [11],26.00 ± 17.37 min
same,Migraine rebound,acute migraine episodes; [11],None of the three patients experienced migraine rebound
same,Mean peak headache severity rating reduction,"acute migraine episodes; ropivacaine, nasal drops, three patients, out of 10 points",9.00 points
same,Mean time between treatment and perception of the peak effect,"acute migraine episodes; ropivacaine, nasal spray, ten patients",33.9 ± 8.48 min
same,Mean peak headache severity rating reduction,"acute migraine episodes; ropivacaine, nasal spray, ten patients, out of 10 points",6.22±0.66 points
same,Mean headache pain severity rating reduction in patients without complete relief,"acute migraine episodes; ropivacaine, nasal spray, the remainder of ten patients",87.5±6.49%
same,Patients without rebound,"acute migraine episodes; ropivacaine, patients observed for up to seven days",95%
same,Time to relief of head pain and tinnitus symptoms,"tinnitus; patient 4-1, dorsonasal spray",within about five minutes
same,Decrease in head pain,"tinnitus; patient 4-2, dorsonasal spray, non-neurovascular chronic head pain",about 2 points
same,"Reduction in tinnitus symptoms, right ear",tinnitus; [12],50-75%
same,"Tinnitus symptoms, left ear",tinnitus; [12],complete relief
same,"Inhibition of tinnitus, patients","tinnitus; three patients, nasal spray or nasal drops",All three patients experienced inhibition of tinnitus
same,Proportion bound to protein in vivo,[1],Approximately 95%
